How the values were obtained:
pERK in NCI-H358 cells = experiment: Cell-based pERK HTRF assay (pERK inhibition in H358 cells); settings: 30 min incubation
Summary of the method: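 NCI-H358 cells were seeded at 4×10^4 cells/well in RPMI/10% FBS, then treated next day for 30 min at 0.25% DMSO (9-point, 3-fold series from 75 μM). Lysates were read by HTRF (d2/Eu cryptate antibody pair, 615 nm emission) after 4–24 h at room temperature to give pERK IC50.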

[1] = molecular target: T1, GTP-loaded KRAS4b (amino acids 1-169) G12C/C118S protein (Homo sapiens, UniProt P01116, C118S/G12C); experiment: Covalent cysteine 12 modification by MALDI-TOF MS, GTP-loaded KRAS G12C; type: binding; settings: 15 minutes reaction time point
T1 construct: KRAS4b (amino acids 1-169) G12C/C118S protein; made in house
Summary of the method: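 Covalent labelling is scored at 15 min by MALDI-TOF mass spectrometry, using 1 μM protein with compound at a 1:2.5 protein-to-compound ratio at room temperature.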

| IC50 (pERK in NCI-H358 cells; Homo sapiens, NCI-H358, 0.5 h) | GTP-KRAS G12C percent of modification [1] | IC50 (pERK in NCI-H358 cells) | SMILES |
| --- | --- | --- | --- |
| < 100 nM | A (percent of modification ≥70%) |  | C=CC(=O)N1C[C@H](C)N(c2nc(OC[C@@]34CCCN3C[C@H](F)C4)nc3c(F)c(-c4ccc(F)c5sc(N)c(C#N)c45)c(Cl)cc23)C[C@H]1C (atropisomer, axis not shown) [Compound 102] |
|  | D (percent of modification <10%) | 100 to 1000 nM | C=CC(=O)N1C[C@H](C)N(c2nc(OC[C@@]34CCCN3C[C@H](F)C4)nc3c(F)c(-c4ccc(F)c5sc(N)c(C#N)c45)c(Cl)cc23)C[C@H]1C (atropisomer, axis not shown) [Compound 103] |
|  | A (percent of modification ≥70%) | < 100 nM | C=CC(=O)N1CC[C@@H](N(C)c2nc(OC[C@@H]3CCCN3C)nc3c(F)c(-c4ccc(F)c5sc(N)c(C#N)c45)c(Cl)cc23)[C@H]1C (atropisomer, axis not shown) [Compound 118] |
|  | D (percent of modification <10%) | > 1000 nM | C=CC(=O)N1CC[C@@H](N(C)c2nc(OC[C@@H]3CCCN3C)nc3c(F)c(-c4ccc(F)c5sc(N)c(C#N)c45)c(Cl)cc23)[C@H]1C (atropisomer, axis not shown) [Compound 119] |
|  | A (percent of modification ≥70%) | < 100 nM | C=CC(=O)N1CC[C@@H](N(CC)c2nc(OC[C@@H]3CC4(CC4)CN3C)nc3c(F)c(-c4ccc(F)c5sc(N)c(C#N)c45)c(Cl)cc23)[C@H]1C (atropisomer, axis not shown) [Compound 120] |
|  | D (percent of modification <10%) | > 1000 nM | C=CC(=O)N1CC[C@@H](N(CC)c2nc(OC[C@@H]3CC4(CC4)CN3C)nc3c(F)c(-c4ccc(F)c5sc(N)c(C#N)c45)c(Cl)cc23)[C@H]1C (atropisomer, axis not shown) [Compound 121] |
| < 100 nM | B (50≤percent of modification <70%) |  | C=CC(=O)N1CC[C@H](N(CC)c2nc(OC[C@@]34CCCN3C[C@H](F)C4)nc3c(F)c(-c4ccc(F)c5sc(N)c(C#N)c45)c(C(F)(F)F)cc23)C1 (atropisomer, axis not shown) [Compound 171] |
| < 100 nM | A (percent of modification ≥70%) |  | C=CC(=O)N1C[C@H](N(C)c2nc(OC[C@@]34CCCN3C[C@H](F)C4)nc3c(F)c(-c4ccc(F)c5sc(N)c(C#N)c45)c(C(F)(F)F)cc23)C[C@H]1C (atropisomer, axis not shown) [Compound 176] |
|  | D (percent of modification <10%) | 100 to 1000 nM | C=CC(=O)N1C[C@H](N(C)c2nc(OC[C@@]34CCCN3C[C@H](F)C4)nc3c(F)c(-c4ccc(F)c5sc(N)c(C#N)c45)c(C(F)(F)F)cc23)C[C@H]1C (atropisomer, axis not shown) [Compound 177] |
| < 100 nM | A (percent of modification ≥70%) |  | C=CC(=O)N1CC[C@@H](N(C)c2nc(OC[C@@]34CCCN3C[C@H](F)C4)nc3c(F)c(-c4ccc(F)c5sc(N)c(C#N)c45)ccc23)[C@H]1CC [Compound 4] |
| < 100 nM | A (percent of modification ≥70%) |  | C=CC(=O)N1CCC(N(C)c2nc(OC[C@@]34CCCN3C[C@H](F)C4)nc3cc(-c4ccc(F)c5sc(N)c(C#N)c45)c(C#N)cc23)[C@H]1CC (stereo partly drawn) [Compound 7] |
| < 100 nM | C (10%≤percent of modification <50%) |  | C=CC(=O)N1CCC(N(CC)c2nc(OC[C@@]34CCCN3C[C@H](F)C4)nc3c(F)c(-c4ccc(F)c5sc(N)c(C#N)c45)c(C(F)(F)F)cc23)[C@H]1CC (stereo partly drawn) [Compound 8] |
| 100 to 1000 nM | A (percent of modification ≥70%) |  | C=CC(=O)N1CCC(N(CC)c2nc(OC[C@@]34CCCN3C[C@H](F)C4)nc3c(F)c(-c4ccc(F)c5sc(N)c(C#N)c45)ccc23)[C@H]1CC (stereo partly drawn) [Compound 11] |
| < 100 nM | C (10%≤percent of modification <50%) |  | C=CC(=O)N1CCC(N(CC)c2nc(OC[C@@]34CCCN3C[C@H](F)C4)nc3c(F)c(-c4ccc(F)c5sc(N)c(C#N)c45)c(Cl)cc23)[C@H]1CC (stereo partly drawn) [Compound 12] |
| < 100 nM |  |  | C=CC(=O)N1C[C@@H](C)N(c2nc(OC[C@@]34CCCN3C[C@H](F)C4)nc3c(F)c(-c4ccc(F)c5sc(N)c(C#N)c45)c(C(F)(F)F)cc23)C[C@@H]1C [Compound 124] |

The remaining lines, values behind:

| SMILES | IC50 (pERK in NCI-H358 cells; Homo sapiens, NCI-H358, 0.5 h) | GTP-KRAS G12C percent of modification [1] | IC50 (pERK in NCI-H358 cells) |
| --- | --- | --- | --- |
| C=CC(=O)N1CC[C@@H](N(C)c2nc(OC[C@@H]3CC4(CC4)CN3C)nc3c(F)c(-c4ccc(F)c5sc(N)c(C#N)c45)c(C(F)(F)F)cc23)[C@@H]1C (atropisomer, axis not shown) [Compound 111] | < 100 nM | A (percent of modification ≥70%) |  |
| C=CC(=O)N1CC[C@@H](N(CC)c2nc(OC[C@@H]3C[C@@H](F)CN3C)nc3c(F)c(-c4ccc(F)c5sc(N)c(C#N)c45)c(C(F)(F)F)cc23)[C@H]1C (atropisomer, axis not shown) [Compound 113] |  | A (percent of modification ≥70%) | < 100 nM |
| C=CC(=O)N1CC[C@@H](N(CC)c2nc(OC[C@@H]3C[C@@H](F)CN3C)nc3c(F)c(-c4ccc(F)c5sc(N)c(C#N)c45)c(C(F)(F)F)cc23)[C@H]1C (atropisomer, axis not shown) [Compound 114] |  | D (percent of modification <10%) | > 1000 nM |
| C=CC(=O)N1CC[C@@H](N(C)c2nc(OC[C@@H]3CCCN3C)nc3c(F)c(-c4ccc(F)c5sc(N)c(C#N)c45)c(C(F)(F)F)cc23)[C@H]1C (atropisomer, axis not shown) [Compound 131] |  | A (percent of modification ≥70%) | < 100 nM |
| C=CC(=O)N1CC[C@@H](N(C)c2nc(OC[C@@H]3CCCN3C)nc3c(F)c(-c4ccc(F)c5sc(N)c(C#N)c45)c(C(F)(F)F)cc23)[C@H]1C (atropisomer, axis not shown) [Compound 132] |  | D (percent of modification <10%) | > 1000 nM |
| C=CC(=O)N1CC[C@@H](N(CC)c2nc(OC[C@@H]3C[C@@H](OC)CN3C)nc3c(F)c(-c4ccc(F)c5sc(N)c(C#N)c45)c(C(F)(F)F)cc23)[C@H]1C (single isomer, unassigned) [Compound 116] |  | A (percent of modification ≥70%) | < 100 nM |
| C=CC(=O)N1CC[C@@H](N(CC)c2nc(OC[C@@H]3C[C@@H](OC)CN3C)nc3c(F)c(-c4ccc(F)c5sc(N)c(C#N)c45)c(C(F)(F)F)cc23)[C@H]1C (single isomer, unassigned) [Compound 117] |  | D (percent of modification <10%) | > 1000 nM |
| C=CC(=O)N1CC[C@@H](N(C)c2nc(OC[C@@H]3C[C@@H](OC)CN3C)nc3c(F)c(-c4ccc(F)c5sc(N)c(C#N)c45)c(C(F)(F)F)cc23)[C@H]1C (single isomer, unassigned) [Compound 172] | < 100 nM | A (percent of modification ≥70%) |  |
| C=CC(=O)N1CC[C@@H](N(C)c2nc(OC[C@H]3C[C@@H](OC)CN3C)nc3c(F)c(-c4ccc(F)c5sc(N)c(C#N)c45)c(C(F)(F)F)cc23)[C@H]1C (single isomer, unassigned) [Compound 173] | < 100 nM | A (percent of modification ≥70%) |  |
| C=CC(=O)N1CC[C@@H](N(C)c2nc(OC[C@@H]3C[C@@H](OC)CN3C)nc3c(F)c(-c4ccc(F)c5sc(N)c(C#N)c45)c(C(F)(F)F)cc23)[C@H]1C (single isomer, unassigned) [Compound 174] |  | D (percent of modification <10%) | 100 to 1000 nM |
| C=CC(=O)N1CC[C@@H](N(C)c2nc(OC[C@H]3C[C@@H](OC)CN3C)nc3c(F)c(-c4ccc(F)c5sc(N)c(C#N)c45)c(C(F)(F)F)cc23)[C@H]1C (single isomer, unassigned) [Compound 175] |  | D (percent of modification <10%) | 100 to 1000 nM |
| C=CC(=O)N1CCC(N(C)c2nc(OC[C@@H]3CCCN3C)nc3c(F)c(-c4nc(N)cc(C)c4C(F)(F)F)c(Cl)cc23)[C@H]1C (stereo partly drawn) [Compound 9] | 100 to 1000 nM | C (10%≤percent of modification <50%) |  |
| C=CC(=O)N1CCC(N(C)c2nc(OC[C@@]34CCCN3C[C@H](F)C4)nc3c(F)c(-c4nc(N)cc(C)c4C(F)(F)F)c(Cl)cc23)[C@H]1C (stereo partly drawn) [Compound 10] | < 100 nM | B (50≤percent of modification <70%) |  |
| C=CC(=O)N1CCC(N(CC)c2nc(OC[C@@]34CCCN3C[C@H](F)C4)nc3cc(-c4ccc(F)c5sc(N)c(C#N)c45)c(C#N)cc23)[C@H]1CC (stereo partly drawn) [Compound 14] | 100 to 1000 nM | B (50≤percent of modification <70%) |  |

From patent US20260232666A1, “COMPOSITIONS AND METHODS FOR INHIBITION OF RAS” (TheRas, Inc., priority 2023, published 2026)
